The results in this text go back to article PMC7424068, “Design, Synthesis, and Biological Evaluation of Novel Thiazolidinone-Containing Quinoxaline-1,4-di-N-oxides as Antimycobacterial and Antifungal Agents” (Frontiers in Chemistry, 2020).

The test system of one data set is Mtb H37Rv (ATCC27294). The data set can be described thus: Antimycobacterial activity, microplate Alamar blue assay (MABA). Format: cell-based, Mycobacterium tuberculosis. Conditions: for antimycobacterial activity (in words): Mtb strain H37Rv; for MIC: Mycobacterium tuberculosis, Mtb H37Rv.
The subject of a further data set is C. neoformans (2.3201). Kind of data set: Antifungal activity, broth microdilution. Conditions: Cryptococcus neoformans; C. neoformans 2.3201; read-out: MIC. In kind it is cell-based. The method, then:
(§1) All synthesized compounds and the positive control drugs amphotericin B and ketoconazole were tested for their in vitro antifungal activity. Antifungal activity was evaluated against four fungi, C. albicans (ATCC90028), C. tropicalis (ATCC7349), A. fumigatus (3.5352), and C. neoformans (2.3201), by broth microdilution according to the protocols from the NCCLS (Jiang et al., [2014]). Briefly, all tested compounds were dissolved in DMSO, and the solutions were diluted with fresh broth medium. All of the fungi-seeded broth (1 × 10^5 colony-forming units [CFU]/mL) were prepared in RPMI 1640 medium and added into the serially diluted drug solution. The tubes were incubated at 28°C, and the MIC (μg/mL) was recorded 72–96 h post-incubation. Broth control (without fungi), growth controls (with fungi and without drug), solvent (DMSO) control, and drug control for both test drugs and standard drugs were set under identical conditions. The minimum drug concentration in the tubes in which no apparent growth of the organism was observed represented the MIC of the compounds.

A further data set deals with A. fumigatus (3.5352). Kind of data set: Antifungal activity, broth microdilution. Format: cell-based. Conditions: Aspergillus fumigatus; A. fumigatus 3.5352; read-out: MIC. The method, then:
as §1

The subject of a further data set is C. tropicalis (ATCC7349). Kind of data set: Antifungal activity, broth microdilution. Format: cell-based. Conditions: Candida tropicalis, C. tropicalis ATCC 7349, read-out: MIC. The method, then: as §1
(In general: In broth dilution the organism is exposed to a series of concentrations in liquid medium.)

The next data set deals with VERO cell line. Kind of data set: Cytotoxicity MTT assay. Format: cell-based. The note with it: Chlorocebus sabaeus, cytotoxicity in VERO cells, 72 h. The method, then:
VERO cells (2 × 10^4 cells) were seeded into 96-well plates and incubated for 12 h. Serial dilutions of the compounds were mixed with the cell suspension in the plates. Both treated cells and blank and solvent controls were incubated for 72 h, followed by incubation with MTT (0.5 mg/mL) for another 4 h. The microplates were measured at 570 nm using a multimode reader (Infinite M200, Tecan). The percentage of viable cells was calculated as the mean with respect to the controls set to 100%. Triplicate wells were analyzed for each concentration. IC50 was defined as the concentration that reduced the viable cells by 50% compared to the untreated control cells. It was considered significant when the SI was more than 10.

A further data set deals with C. albicans (ATCC90028). The data set can be described thus: Antifungal activity, broth microdilution. Format: cell-based, Candida albicans. Conditions: Candida albicans ATCC 90028, read-out: MIC. The method, then: as §1
Where [1] appears, read: repeated in Table 5 for the 3D-QSAR models, read-out: MIC.
The mark [2] stands for this setting: experimental pMIC, Table 5, read-out: pMIC exp (converted).

In brackets after ≈: the same amount, converted by molar mass. Where two headings read alike, the source gives them in different places.

For orientation: IC50 means the concentration needed to halve the response being measured. Read a low IC50 as greater potency in that assay. In general, melting point refers to the temperature of the solid-liquid transition.

Regarding `O=C1CSC(c2c[n+]([O-])c3ccccc3[n+]2[O-])N1c1ccc(Cl)cc1` (centres unmarked) [2e, 2-(3′-P-chlorophenyl-4′(5H)-thiazolidinone)-quinoxaline-1,4-di-N-oxide], the melting point lay within 249 to 252 °C. The “antimycobacterial activity (in words)” value in the data set on Mtb H37Rv (ATCC27294) is on record as “good antimycobacterial activity”. The MIC with Mtb H37Rv (ATCC27294) (MABA assay, read-out: MIC) was no more than 3.13 µg/mL. Besides, the MIC in the data set with Mtb H37Rv (ATCC27294) (setting [1]) was found to be 3.13 µg/mL. Besides, in the data set with Mtb H37Rv (ATCC27294) (setting [2]), the MIC is 8.39 µM. For the same compound, the MIC with C. neoformans (2.3201) is 16 µg/mL (≈ 42.8 µM). For the same compound, the MIC in the data set with A. fumigatus (3.5352) came to 32 µg/mL (≈ 85.6 µM). Besides, the MIC with C. tropicalis (ATCC7349) was determined as 8 µg/mL (≈ 21.4 µM). For the same compound, the IC50 in the data set on VERO cell line was determined as 116 µg/mL (≈ 310 µM). The MIC in the data set with C. albicans (ATCC90028) is 8 µg/mL (≈ 21.4 µM).

The compound `Cc1ccc2c(c1)[n+]([O-])c(C1SCC(=O)N1c1ccc(F)cc1)c[n+]2[O-]` (centres unmarked) [2j, 7-CH3-2-(3′-P-fluorophenyl-4′(5H)-thiazolidinone)-quinoxaline-1,4-di-N-oxide] displayed a melting point of 243 to 245 °C. Moreover, the “antimycobacterial activity (in words)” value with Mtb H37Rv (ATCC27294) was “good antimycobacterial activity”. The MIC with Mtb H37Rv (ATCC27294) (MABA assay, read-out: MIC) amounted to 6.25 µg/mL. Further, in the data set with Mtb H37Rv (ATCC27294) (setting [1]), the MIC was 6.25 µg/mL. For the same compound, the MIC in the data set on Mtb H37Rv (ATCC27294) (setting [2]) is 16.9 µM. For the same compound, the MIC in the data set with C. neoformans (2.3201) amounted to 16 µg/mL (≈ 43.1 µM). In addition, the MIC in the data set on A. fumigatus (3.5352) was 32 µg/mL (≈ 86.2 µM). The MIC in the data set with C. tropicalis (ATCC7349) came out at 8 µg/mL (≈ 21.5 µM). Inhibition in the data set with VERO cell line was half-maximal at 114 µg/mL (≈ 306 µM) (IC50). Also, in the data set with C. albicans (ATCC90028), the MIC was determined as 16 µg/mL (≈ 43.1 µM).

Turning to `O=C1CSC(c2c[n+]([O-])c3ccc(Cl)cc3[n+]2[O-])N1c1ccccc1` (centres unmarked) [2v, 7-Cl-2-(3′-phenyl-4′(5H)-thiazolidinone)-quinoxaline-1,4-di-N-oxide], the melting point lay within 248 to 250 °C. Moreover, the MIC with Mtb H37Rv (ATCC27294) (MABA assay, read-out: MIC) is no more than 3.13 µg/mL. Further, the MIC in the data set on Mtb H37Rv (ATCC27294) (setting [1]) came out at 3.13 µg/mL. For the same compound, the MIC in the data set with Mtb H37Rv (ATCC27294) (setting [2]) is 8.39 µM. In addition, the MIC with C. neoformans (2.3201) came out at 8 µg/mL (≈ 21.4 µM). For the same compound, the MIC with A. fumigatus (3.5352) worked out at 4 µg/mL (≈ 10.7 µM). In the data set on C. tropicalis (ATCC7349), the MIC is 8 µg/mL (≈ 21.4 µM). The IC50 with VERO cell line worked out at 119 µg/mL (≈ 318 µM). Also, the MIC in the data set with C. albicans (ATCC90028) came out at 8 µg/mL (≈ 21.4 µM).

Take `O=C1CSC(c2c[n+]([O-])c3ccccc3[n+]2[O-])N1c1ccc(F)cc1` (centres unmarked) [2d, 2-(3′-P-fluorophenyl-4′(5H)-thiazolidinone)-quinoxaline-1,4-di-N-oxide]: the melting point lay within 240 to 242 °C. Moreover, the “antimycobacterial activity (in words)” value with Mtb H37Rv (ATCC27294) is “good antimycobacterial activity”. In addition, the MIC in the data set on Mtb H37Rv (ATCC27294) (MABA assay, read-out: MIC) was found to be 3.13 µg/mL. Also, the MIC in the data set on Mtb H37Rv (ATCC27294) (setting [1]) came to 3.13 µg/mL. Moreover, the MIC in the data set with Mtb H37Rv (ATCC27294) (setting [2]) is 8.77 µM. In addition, the MIC with C. neoformans (2.3201) turned out to be 8 µg/mL (≈ 22.4 µM). In addition, in the data set on A. fumigatus (3.5352), the MIC was 32 µg/mL (≈ 89.5 µM). In addition, the MIC in the data set on C. tropicalis (ATCC7349) was 8 µg/mL (≈ 22.4 µM). The compound also showed an IC50 with VERO cell line of 123 µg/mL (≈ 344 µM). Also, the MIC with C. albicans (ATCC90028) is 16 µg/mL (≈ 44.8 µM).

`Cc1ccc2c(c1)[n+]([O-])c(C1SCC(=O)N1c1ccc(Cl)cc1)c[n+]2[O-]` (centres unmarked) [2k, 7-CH3-2-(3′-P-chlorophenyl-4′(5H)-thiazolidinone)-quinoxaline-1,4-di-N-oxide] came in with a melting point of 244 to 248 °C. Besides, the “antimycobacterial activity (in words)” value in the data set with Mtb H37Rv (ATCC27294) was “good antimycobacterial activity”. Further, the MIC in the data set on Mtb H37Rv (ATCC27294) (MABA assay, read-out: MIC) was no more than 3.13 µg/mL. Moreover, the MIC with Mtb H37Rv (ATCC27294) (setting [1]) was found to be 3.13 µg/mL. The MIC with Mtb H37Rv (ATCC27294) (setting [2]) was 8.09 µM. The MIC with C. neoformans (2.3201) worked out at 32 µg/mL (≈ 82.5 µM). In addition, the MIC in the data set on A. fumigatus (3.5352) came out at 32 µg/mL (≈ 82.5 µM). For the same compound, the MIC in the data set on C. tropicalis (ATCC7349) was found to be 16 µg/mL (≈ 41.3 µM). Besides, the IC50 in the data set with VERO cell line was determined as 102 µg/mL (≈ 264 µM). For the same compound, the MIC in the data set on C. albicans (ATCC90028) turned out to be 32 µg/mL (≈ 82.5 µM).

The compound `COc1ccc(N2C(=O)CSC2c2c[n+]([O-])c3ccc(Cl)cc3[n+]2[O-])cc1` (centres unmarked) [2x, 7-Cl-2-(3′-P-methoxyphenyl-4′(5H)-thiazolidinone)-quinoxaline-1,4-di-N-oxide] returned a melting point of 252 to 254 °C. Further, in the data set with Mtb H37Rv (ATCC27294) (MABA assay, read-out: MIC), the MIC came out at 12.5 µg/mL. Moreover, the MIC with Mtb H37Rv (ATCC27294) (setting [1]) was 12.5 µg/mL. Also, the MIC in the data set with Mtb H37Rv (ATCC27294) (setting [2]) was 31 µM. In addition, the MIC in the data set on C. neoformans (2.3201) is 8 µg/mL (≈ 19.8 µM). Moreover, the MIC in the data set with A. fumigatus (3.5352) worked out at 8 µg/mL (≈ 19.8 µM). The MIC in the data set on C. tropicalis (ATCC7349) stood at 8 µg/mL (≈ 19.8 µM). The MIC in the data set with C. albicans (ATCC90028) was 8 µg/mL (≈ 19.8 µM).

`COc1ccc(N2C(=O)CSC2c2c[n+]([O-])c3ccc(C)cc3[n+]2[O-])cc1` (centres unmarked) [2i, 7-CH3-2-(3′-P-methoxyphenyl-4′(5H)-thiazolidinone)-quinoxaline-1,4-di-N-oxide]: the melting point lay in the range of 255 to 259 °C. In the data set on Mtb H37Rv (ATCC27294) (MABA assay, read-out: MIC), the MIC is 50 µg/mL. In the data set on Mtb H37Rv (ATCC27294) (setting [1]), the MIC stood at 50 µg/mL. Moreover, the MIC in the data set on Mtb H37Rv (ATCC27294) (setting [2]) was 131 µM. For the same compound, the MIC with C. neoformans (2.3201) was determined as 16 µg/mL (≈ 41.7 µM). Moreover, the MIC in the data set with A. fumigatus (3.5352) is greater than 64 µg/mL. For the same compound, the MIC with C. tropicalis (ATCC7349) was 32 µg/mL (≈ 83.5 µM). Further, in the data set on C. albicans (ATCC90028), the MIC came to 64 µg/mL (≈ 167 µM).
